Here are results for four compounds from article PMC7713294, “Multiplicity of carotene patterns derives from competition between phytoene desaturase diversification and biological environments” (Scientific Reports, 2020).

pKd: −log10 of the molar value.

Assay in all cases: HPLC-UV time course, global Michaelis-Menten fit (COPASI)
Holding throughout (format): biochemical

Test [1] addresses T1, I4_Bt (CrtI from Blakeslea trispora) (Blakeslea trispora, UniProt Q67GI0).
T1 construct: gene carB; full length, codon optimized, C-terminal His6, E. coli BL21(DE3), TALON purified with FAD
T1 sequence (Q67GI0 1-582): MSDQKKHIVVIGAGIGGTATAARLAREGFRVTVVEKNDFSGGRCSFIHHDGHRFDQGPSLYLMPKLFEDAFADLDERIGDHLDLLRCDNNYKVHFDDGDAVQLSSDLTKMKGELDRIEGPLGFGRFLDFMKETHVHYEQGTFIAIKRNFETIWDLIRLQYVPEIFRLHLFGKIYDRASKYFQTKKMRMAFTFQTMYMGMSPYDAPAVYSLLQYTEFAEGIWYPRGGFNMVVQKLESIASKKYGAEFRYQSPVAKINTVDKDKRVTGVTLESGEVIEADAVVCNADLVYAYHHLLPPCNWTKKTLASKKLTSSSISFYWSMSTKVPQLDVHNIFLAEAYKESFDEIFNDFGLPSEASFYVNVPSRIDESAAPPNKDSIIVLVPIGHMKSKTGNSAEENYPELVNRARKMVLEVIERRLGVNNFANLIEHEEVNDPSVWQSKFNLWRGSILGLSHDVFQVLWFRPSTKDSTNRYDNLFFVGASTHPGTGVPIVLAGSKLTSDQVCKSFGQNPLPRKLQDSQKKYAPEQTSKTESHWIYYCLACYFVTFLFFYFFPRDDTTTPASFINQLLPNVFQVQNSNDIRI
The conditions noted are these: phytoene liposomes (soy lecithin), FAD, pH 8.0, 30 °C; Kd = kr/kf fitted with bounded rate constants.

For the next test, the target named is T2, I4_Ma (Mycolicibacterium aurum, UniProt Q9K566).
T2 construct: gene crtI; full length, codon optimized, C-terminal His6, E. coli BL21(DE3), TALON purified with FAD; species only as initials (Ma), read as Mycobacterium aurum
T2 sequence (Q9K566 entry or part of it): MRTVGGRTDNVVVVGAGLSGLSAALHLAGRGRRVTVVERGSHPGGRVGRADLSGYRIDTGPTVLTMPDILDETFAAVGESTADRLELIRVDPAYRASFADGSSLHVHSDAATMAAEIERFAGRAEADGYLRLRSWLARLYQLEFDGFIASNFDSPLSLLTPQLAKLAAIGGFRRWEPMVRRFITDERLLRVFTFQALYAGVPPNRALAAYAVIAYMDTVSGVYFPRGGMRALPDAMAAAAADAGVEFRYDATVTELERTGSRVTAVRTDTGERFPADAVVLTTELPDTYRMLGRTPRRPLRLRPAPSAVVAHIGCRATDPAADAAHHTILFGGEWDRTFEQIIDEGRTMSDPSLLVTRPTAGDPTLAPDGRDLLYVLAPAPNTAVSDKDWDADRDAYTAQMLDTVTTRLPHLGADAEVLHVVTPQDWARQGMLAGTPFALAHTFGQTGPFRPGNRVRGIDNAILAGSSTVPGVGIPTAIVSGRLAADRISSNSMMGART
The conditions noted are these: phytoene liposomes (soy lecithin), FAD, pH 8.0, 30 °C, Kd = kr/kf fitted with bounded rate constants.

The target of the next test is T3, I3_Rc (Rhodobacter capsulatus, UniProt P17054).
T3 construct: gene crtI; full length, codon optimized, C-terminal His6, E. coli BL21(DE3), TALON purified with FAD; species only as initials
T3 sequence (P17054 whole entry): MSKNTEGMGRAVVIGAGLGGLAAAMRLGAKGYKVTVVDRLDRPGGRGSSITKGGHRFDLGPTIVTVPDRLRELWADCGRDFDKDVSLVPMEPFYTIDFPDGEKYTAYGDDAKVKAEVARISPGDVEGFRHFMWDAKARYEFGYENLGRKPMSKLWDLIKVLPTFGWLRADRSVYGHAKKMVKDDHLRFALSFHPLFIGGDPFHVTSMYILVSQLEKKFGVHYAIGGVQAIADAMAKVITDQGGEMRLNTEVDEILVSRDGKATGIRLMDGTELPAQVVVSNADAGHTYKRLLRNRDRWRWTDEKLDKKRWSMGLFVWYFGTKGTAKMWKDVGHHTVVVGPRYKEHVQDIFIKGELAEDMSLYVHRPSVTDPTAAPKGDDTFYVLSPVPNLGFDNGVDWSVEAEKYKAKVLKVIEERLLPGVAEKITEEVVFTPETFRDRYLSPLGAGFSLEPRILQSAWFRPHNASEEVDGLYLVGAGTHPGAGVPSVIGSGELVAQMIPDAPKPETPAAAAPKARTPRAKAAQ
The conditions noted are these: phytoene liposomes (soy lecithin), FAD, pH 8.0, 30 °C, Kd = kr/kf fitted with bounded rate constants.

With `CC(C)=CCC/C(C)=C/C=C/C(C)=C/C=C/C(C)=C/C=C/C=C(C)/C=C/C=C(\C)CC/C=C(\C)CCC=C(C)C` [neurosporene], the negative-log Kd (pKd) is 5.80 in test [1], 5.68 on I4_Ma (intermediate formed in situ from phytoene) and 4.48 on I3_Rc (lycopene production poorly fitted for I3_Rc).

For `CC(C)=CCC/C(C)=C/CC/C(C)=C/C=C/C(C)=C/C=C/C=C(C)/C=C/C=C(\C)CC/C=C(\C)CCC=C(C)C` [ζ-carotene], the results for the negative logarithm of the Kd (pKd) (in test [1]; at I4_Ma; at I3_Rc) were 5.60, 5.64 and 4.64, respectively.

`CC(C)=CCC/C(C)=C/CC/C(C)=C/C=C/C(C)=C/C=C/C=C(\C)CC/C=C(\C)CC/C=C(\C)CCC=C(C)C` [phytofluene]: the pKd in test [1] was 5.33; at I4_Ma, 6.00; on I3_Rc, 6.00.

Turning to `CC(C)=CCC/C(C)=C/CC/C(C)=C/CC/C(C)=C/C=C\C=C(/C)CC/C=C(\C)CC/C=C(\C)CCC=C(C)C` [phytoene], the negative-log Kd (pKd) in test [1] was 5.10; on I4_Ma, 4.88; at I3_Rc it was 5.96.

The term pKd denotes −log10 of the Kd, conventionally taken in molar units. Low values mean a large Kd, high ones a small Kd.
